Assay results reported in patent US11420944B2, “Voltage-dependent t-type calcium channel blocker” (Nippon Chemiphar Co., Ltd., priority 2016, dated 2022).
Read-outs that look alike come from different tables or passages of the source.

Assays:
[1] = target: T1, human Cav3.2 channels (Homo sapiens, UniProt O95180); experiment: Electrophysiological evaluation, whole-cell patch-clamp with automatic patch-clamp system; assay type: cell-based; details: for inhibition at 0.3 µM: holding potential −80 mV, read-out: Cav3.2 channel current inhibition ratio at 0.3 μM of test compound (holding potential −80 mV)
T1 construct: expressed in transfected cells; host or cells: HEK293 cells (ATCC No. CRL-1573), plasmid pcDNA3.1(+)
T1 sequence (O95180 whole entry): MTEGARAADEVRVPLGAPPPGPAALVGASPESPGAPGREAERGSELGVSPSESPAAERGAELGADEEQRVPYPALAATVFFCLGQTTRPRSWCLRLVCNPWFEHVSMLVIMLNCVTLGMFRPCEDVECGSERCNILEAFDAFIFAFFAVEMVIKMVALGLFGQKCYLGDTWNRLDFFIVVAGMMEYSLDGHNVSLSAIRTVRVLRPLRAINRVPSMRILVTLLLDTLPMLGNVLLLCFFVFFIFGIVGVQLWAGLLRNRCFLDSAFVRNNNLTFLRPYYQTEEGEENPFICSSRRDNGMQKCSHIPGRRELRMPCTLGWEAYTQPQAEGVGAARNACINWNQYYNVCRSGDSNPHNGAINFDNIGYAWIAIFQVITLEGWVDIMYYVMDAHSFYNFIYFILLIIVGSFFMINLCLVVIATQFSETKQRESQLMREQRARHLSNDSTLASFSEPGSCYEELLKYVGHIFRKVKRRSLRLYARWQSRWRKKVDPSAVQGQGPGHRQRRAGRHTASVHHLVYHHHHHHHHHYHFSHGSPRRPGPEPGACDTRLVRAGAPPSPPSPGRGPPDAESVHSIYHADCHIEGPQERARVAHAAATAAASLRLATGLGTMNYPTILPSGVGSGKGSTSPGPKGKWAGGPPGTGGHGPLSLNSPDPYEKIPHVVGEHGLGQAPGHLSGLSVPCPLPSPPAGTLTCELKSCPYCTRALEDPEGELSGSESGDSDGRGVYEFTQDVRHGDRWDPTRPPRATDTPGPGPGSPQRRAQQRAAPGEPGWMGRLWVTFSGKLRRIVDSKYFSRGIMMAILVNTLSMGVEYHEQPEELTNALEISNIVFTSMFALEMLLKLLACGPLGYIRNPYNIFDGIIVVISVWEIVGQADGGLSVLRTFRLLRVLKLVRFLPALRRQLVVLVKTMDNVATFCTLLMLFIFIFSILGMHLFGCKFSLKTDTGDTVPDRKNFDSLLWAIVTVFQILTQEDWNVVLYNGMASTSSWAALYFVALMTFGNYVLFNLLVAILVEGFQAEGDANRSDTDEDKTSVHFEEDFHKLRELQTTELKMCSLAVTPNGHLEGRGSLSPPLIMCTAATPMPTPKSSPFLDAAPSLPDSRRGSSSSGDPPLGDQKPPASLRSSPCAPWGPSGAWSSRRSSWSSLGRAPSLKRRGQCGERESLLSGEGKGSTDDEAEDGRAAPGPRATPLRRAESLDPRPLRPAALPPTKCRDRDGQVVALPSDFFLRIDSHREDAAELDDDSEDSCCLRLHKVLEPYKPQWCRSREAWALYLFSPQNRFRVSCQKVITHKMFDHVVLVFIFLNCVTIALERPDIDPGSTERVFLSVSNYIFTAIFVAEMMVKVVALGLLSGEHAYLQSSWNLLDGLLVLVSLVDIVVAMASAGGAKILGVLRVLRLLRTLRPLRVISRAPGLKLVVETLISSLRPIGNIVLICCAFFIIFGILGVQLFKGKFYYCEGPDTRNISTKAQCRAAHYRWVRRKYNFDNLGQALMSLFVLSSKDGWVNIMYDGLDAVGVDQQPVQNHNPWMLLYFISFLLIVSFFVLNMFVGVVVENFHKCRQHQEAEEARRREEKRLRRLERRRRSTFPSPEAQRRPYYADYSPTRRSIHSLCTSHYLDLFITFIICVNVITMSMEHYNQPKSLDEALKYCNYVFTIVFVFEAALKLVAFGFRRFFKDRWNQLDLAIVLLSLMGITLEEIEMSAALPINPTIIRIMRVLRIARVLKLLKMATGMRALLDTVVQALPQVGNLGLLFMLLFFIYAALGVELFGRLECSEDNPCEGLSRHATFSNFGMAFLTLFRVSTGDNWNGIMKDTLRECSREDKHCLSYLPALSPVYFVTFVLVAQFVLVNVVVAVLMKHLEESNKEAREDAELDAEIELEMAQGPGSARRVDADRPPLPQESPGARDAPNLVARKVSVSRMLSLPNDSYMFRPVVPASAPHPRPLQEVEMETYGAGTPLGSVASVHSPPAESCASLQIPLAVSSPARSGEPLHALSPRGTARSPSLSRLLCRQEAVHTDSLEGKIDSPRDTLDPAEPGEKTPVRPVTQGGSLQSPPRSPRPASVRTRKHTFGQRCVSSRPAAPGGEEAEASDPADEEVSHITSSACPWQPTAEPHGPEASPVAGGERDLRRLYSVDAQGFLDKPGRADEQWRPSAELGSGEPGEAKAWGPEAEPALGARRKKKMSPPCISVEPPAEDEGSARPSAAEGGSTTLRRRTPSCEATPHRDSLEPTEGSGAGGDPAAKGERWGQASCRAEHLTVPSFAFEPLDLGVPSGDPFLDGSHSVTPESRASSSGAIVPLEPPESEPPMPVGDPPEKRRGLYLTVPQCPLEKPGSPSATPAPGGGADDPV
Description: Electrophysiological Evaluation
Stable cell line expressing human Cav3.2 channels, which had been produced by Test method (1) of Example 140, was seeded in a 10-cm dish using DMEM medium containing 10% FBS, and the cells were cultured for 24 hours or longer under the conditions of 37° C. and 5% CO2. The cells were detached using Accutase and were used after being suspended in ice-cold extracellular solution. The Cav3.2 channel current was measured by the Whole-cell patch-clamp method using an automatic patch-clamp system (Port-a-Patch; Nanion Technologies GmbH, EPC-10; HEKA Elektronik GmbH, Patchmaster; HEKA Elektronik GmbH) and buffers described below. Measurement of the Cav3.2 channel current was carried out at room temperature, and the measurement conditions were set as follows: holding potential: −80 mV, depolarization potential: −20 mV, depolarization time: 100 msec, and depolarization frequency: 10 sec. The Cav3.2 channel current was defined as the peak value of the inward current observed when depolarization occurred at −20 mV.
For a test compound, a DMSO solution was diluted 1,000 times with extracellular solution, and thus a solution having an intended concentration was produced. The test compound was applied using an extracellular perfusion system (Nanion Technologies GmbH) until the Cav3.2 channel current was stabilized, and five concentrations at the maximum from the low-concentration side were cumulatively applied. The inhibition ratio of the test compound was calculated from the current value immediately before the application of the test compound and the change rate of the Cav3.2 channel current after the application of the test compound (conditions for a holding potential of −80 mV: test compound concentration of 0.3 μM, conditions for a holding potential of −100 mV: test compound concentration of 3 μM).
Extracellular solution: 135 mM NaCl, 4 mM KCl, 1 mM MgCl2, 5 mM CaCl2, 5 mM D-Glucose, and 10 mM HEPES, pH 7.4
Internal solution for electrode: 10 mM NaCl, 10 mM HEPES, 50 mM CsCl, 60 mM CsF, and 20 mM EGTA, pH 7.2

[2] = target: T1, human Cav3.2 channels; experiment: Intracellular calcium concentration measurement (Fluo-4 AM) in stable cells expressing human Cav3.2 channels, buffer A / buffer B; assay type: cell-based
Method in brief: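 HEK293 cells stably expressing human Cav3.2, Fluo-4 loaded, preincubated 15 min at room temperature with compound (0.1% DMSO final) in buffer A (K+ equilibrium −92 mV) or B (−110 mV). After ionophore, KCl (83.8 or 91.8 mM) stimulus; 10 s fluorescence rise (ex 485/em 510 nm) gave % inhibition and IC50.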

[3] = Tables 2 to 6, buffer A, equilibrium potential of potassium −92 mV, read-out: Inhibitory action of buffer A (inactivated state)
[4] = Table 1, buffer A, equilibrium potential of potassium −92 mV, read-out: Inhibitory action of buffer A (inactivated state)
[5] = Table 1, buffer B, equilibrium potential of potassium −110 mV, read-out: Inhibitory action of buffer B (resting state or closed state)

inhibition at 0.3 µM [1] | IC50 [2, 3] | SMILES | other results
50% | 100 to 1000 nM | C[C@@H](NC(=O)C1CC1c1nc(-c2ccccn2)c[nH]1)c1ccc(OCC(F)(F)F)s1 (mixture of isomers) [Example 39, Trans-2-(4-(pyridin-2-yl)-1H-imidazol-2-yl)-N—((R)-1-(5-(2,2,2-trifluoroethoxy)thiophen-2-yl)ethyl)cyclopropane-1-carboxamide] | 
1% |  | C[C@@H](NC(=O)C1CC1c1nc2ccccc2[nH]1)c1cnc(OCC(F)(F)F)s1 (single isomer, unassigned) [Example 8A] | Cav3.2 channel current inhibition ratio at 3 μM of test compound (holding potential −100 mV) [1]: 13%; IC50 [2, 4]: 100 to 1000 nM; IC50 [2, 5]: > 10000 nM
58% | 100 to 1000 nM | C[C@@H](NC(=O)C1CC1c1ccc2ccccc2n1)c1ccc(OCC(F)(F)F)s1 (single isomer, unassigned) [Example 34A] | 
35% | ≤ 100 nM | C[C@@H](NC(=O)C1CC1c1c[nH]c2ccccc12)c1cnc(OCC(F)(F)F)s1 (single isomer, unassigned) [Example 49] | 
70% | 100 to 1000 nM | C[C@@H](NC(=O)C1CC1c1ncc2ccccn12)c1cc2cc(F)ccc2o1 (single isomer, unassigned) [Example 117A] | 
64% |  | C[C@@H](NC(=O)[C@@H]1CCN(CC(=O)Nc2ccccc2)C1)c1ccc(OCC(F)(F)F)s1.Cl [Example 17, hydrochloride] | IC50 [2, 4]: 100 to 1000 nM; IC50 [2, 5]: 1000 to 10000 nM
59% | 100 to 1000 nM | C[C@@H](NC(=O)[C@H]1C[C@@H]1c1nc2ccccc2[nH]1)c1ccc(C(=O)OC(C)(C)C)s1 [Example 25A, Trans-5-((1R)-1-(2-(1H-benzo[d]imidazol-2-yl)cyclopropane-1-carboxamido)ethyl)thiophene-2-carboxylic acid tert-butyl ester] | Cav3.2 channel current inhibition ratio at 3 μM of test compound (holding potential −100 mV) [1]: 54%
43% | 100 to 1000 nM | CC(C)[C@@H](NC(=O)[C@H]1C[C@@H]1c1nc2ccccc2[nH]1)c1ccc(C(F)(F)F)s1 [Example 50, (1S,2S)-2-(1H-benzo[d]imidazol-2-yl)-N—((R)-2-methyl-1-(5-(trifluoromethyl)thiophen-2-yl)propyl)cyclopropane-1-carboxamide] | 
33% | 100 to 1000 nM | Cc1nc(OCC(F)(F)F)sc1[C@@H](C)NC(=O)[C@H]1C[C@@H]1c1nc2ccccc2[nH]1 [Example 51, (1S,2S)-2-(1H-benzo[d]imidazol-2-yl)-N—((R)-1-(4-methyl-2-(2,2,2-trifluoroethoxy)thiazol-5-yl)ethyl)cyclopropane-1-carboxamide] | 
 | 1000 to 10000 nM | C[C@@H](NC(=O)[C@H]1C[C@@H]1c1nc2ccccc2[nH]1)c1ccc(C(=O)N2CCCCCC2)s1 [Example 87, (1S,2S)—N—((R)-1-(5-(azepane-1-carbonyl)thiophen-2-yl)ethyl)-2-(1H-benzo[d]imidazol-2-yl)cyclopropane-1-carboxamide] | 
 | 100 to 1000 nM | C[C@@H](NC(=O)[C@H]1C[C@@H]1c1nc2ccccc2[nH]1)c1cnc(-c2ccccc2)s1 [Example 89, (1S,2S)-2-(1H-benzo[d]imidazol-2-yl)-N—((R)-1-(2-phenylthiazol-5-yl)ethyl)cyclopropane-1-carboxamide] | 
 | 100 to 1000 nM | C[C@@H](NC(=O)[C@H]1C[C@@H]1c1nc2ccccc2[nH]1)c1ccc(C(=O)N2CCC(F)(F)CC2)s1 [Example 94, (1S,2S)-2-(1H-benzo[d]imidazol-2-yl)-N—((R)-1-(5-(4,4-difluoropiperidine-1-carbonyl)thiophen-2-yl)ethyl)cyclopropane-1-carboxamide] | 
 | 1000 to 10000 nM | C[C@@H](NC(=O)[C@H]1C[C@@H]1c1nc2ccccc2[nH]1)c1ccc(C(=O)N2CCCC(F)C2)s1 (stereo partly drawn) [Example 95, (1S,2S)-2-(1H-benzo[d]imidazol-2-yl)-N-((1R)-1-(5-(3-fluoropiperidine-1-carbonyl)thiophen-2-yl)ethyl)cyclopropane-1-carboxamide] | 
 | 100 to 1000 nM | C[C@@H](NC(=O)[C@H]1C[C@@H]1c1nc2ccccc2[nH]1)c1cc2cccc(F)c2o1 [Example 96, (1S,2S)-2-(1H-benzo[d]imidazol-2-yl)-N—((R)-1-(7-fluorobenzofuran-2-yl)ethyl)cyclopropane-1-carboxamide] | 
 | 100 to 1000 nM | C[C@@H](NC(=O)[C@H]1C[C@@H]1c1nc2ccccc2[nH]1)c1cc2c(F)cccc2o1 [Example 97, (1S,2S)-2-(1H-benzo[d]imidazol-2-yl)-N—((R)-1-(4-fluorobenzofuran-2-yl)ethyl)cyclopropane-1-carboxamide] | 
 | 1000 to 10000 nM | CC(NC(=O)[C@H]1C[C@@H]1c1nc2ccccc2[nH]1)c1cc2cnccc2o1 (stereo partly drawn) [Example 99, (1S,2S)-2-(1H-benzo[d]imidazol-2-yl)-N-(1-(furo[3,2-c]pyridin-2-yl)ethyl)cyclopropane-1-carboxamide] | 
 | 100 to 1000 nM | C[C@@H](NC(=O)[C@H]1C[C@@H]1c1nc2ccccc2[nH]1)c1cc2cc(C#N)ccc2o1 [Example 107, (1S,2S)-2-(1H-benzo[d]imidazol-2-yl)-N—((R)-1-(5-cyanobenzofuran-2-yl)ethyl)cyclopropane-1-carboxamide] | 
 | ≤ 100 nM | CCn1c([C@H]2C[C@@H]2C(=O)N[C@H](C)c2cc3ccc(F)cc3o2)nc2ccccc21 [Example 110, (1S,2S)-2-(1-ethyl-1H-benzo[d]imidazol-2-yl)-N—((R)-1-(6-fluorobenzofuran-2-yl)ethyl)cyclopropane-1-carboxamide] | 
 | ≤ 100 nM | O=C(NCc1cc2cc(F)ccc2o1)[C@H]1C[C@@H]1c1nc2ccccc2[nH]1 [Example 113, (1S,2S)-2-(1H-benzo[d]imidazol-2-yl)-N-((5-fluorobenzofuran-2-yl)methyl)cyclopropane-1-carboxamide] | 
 | 100 to 1000 nM | CC(C)[C@H](NC(=O)[C@H]1C[C@@H]1c1nc2ccccc2[nH]1)c1ccc(C(F)(F)F)s1 [Example 115, (1S,2S)-2-(1H-benzo[d]imidazol-2-yl)-N—((S)-2-methyl-1-(5-(trifluoromethyl)thiophen-2-yl)propyl)cyclopropane-1-carboxamide] | 
 | ≤ 100 nM | C[C@@H](NC(=O)[C@H]1C[C@@H]1c1nc2cc(F)ccc2[nH]1)c1ccc(OCC(F)(F)F)s1 [Example 118, (1S,2S)-2-(5-fluoro-1H-benzo[d]imidazol-2-yl)-N—((R)-1-(5-(2,2,2-trifluoroethoxy)thiophen-2-yl)ethyl)cyclopropane-1-carboxamide] | 
 | ≤ 100 nM | C[C@@H](NC(=O)[C@H]1C[C@@H]1c1nc2ccccc2[nH]1)c1cc2ccc(F)cc2s1 [Example 119, (1S,2S)-2-(1H-benzo[d]imidazol-2-yl)-N—((R)-1-(6-fluorobenzo[b]thiophen-2-yl)ethyl)cyclopropane-1-carboxamide] | 
 | 100 to 1000 nM | CC(C)[C@@H](NC(=O)[C@H]1C[C@@H]1c1nc2ccccc2[nH]1)c1cc2ccc(F)cc2s1 [Example 120, (1S,2S)-2-(1H-benzo[d]imidazol-2-yl)-N—((R)-1-(6-fluorobenzo[b]thiophen-2-yl)-2-methylpropyl)cyclopropane-1-carboxamide] | 
 | > 10000 nM | C[C@@H](NC(=O)[C@@H]1CCN(c2ccc(C(F)(F)F)cn2)C1)c1cc2cc(F)ccc2o1 [Example 121, (R)—N—((R)-1-(5-fluorobenzofuran-2-yl)ethyl)-1-(5-(trifluoromethyl)pyridin-2-yl)pyrrolidine-3-carboxamide] | 
 | 100 to 1000 nM | C[C@@H](NC(=O)[C@@H]1CCN(c2nc3ccccc3s2)C1)c1cc2cc(F)ccc2o1 [Example 126, (R)-1-(benzo[d]thiazol-2-yl)-N—((R)-1-(5-fluorobenzofuran-2-yl)ethyl)pyrrolidine-3-carboxamide] | 
 | 100 to 1000 nM | O=C(NC1(c2cc3cc(F)ccc3o2)CC1)[C@H]1C[C@@H]1c1nc2ccccc2[nH]1 [Example 128, (1S,2S)-2-(1H-benzo[d]imidazol-2-yl)-N-(1-(5-fluorobenzofuran-2-yl)cyclopropyl)cyclopropane-1-carboxamide] | 
17% |  | C[C@@H](NC(=O)C1CC1c1nc2ccccc2[nH]1)c1cnc(OCC(F)(F)F)cn1 (some centres unmarked) [RQ-00311651, reference compound] | Cav3.2 channel current inhibition ratio at 3 μM of test compound (holding potential −100 mV) [1]: 14%
